Measured values taken from patent US4771068A, “Mitomycin derivatives having anti-tumor and antibacterial utility” (priority 1985, dated 1988).
Converted amounts (≈) assume the structure as drawn.

How the values were obtained:
[1] = system: Sarcoma 180 solid tumour; assay: animal or person; details: for CIc: CI of test compound divided by CI of mitomycin C as control in the same condition; for ED50: Mus musculus, Sarcoma-180, iv, 168 h; for CI (LD50/ED50): chemotherapeutic index
Description: CIc : Value given by division of CI of each test compound by CI of
determination of antitumour activity of the test compound. A CIc
5×10^6 cells of Sarcoma 180 solid tumour were intraperitoneally implanted into ddY mice. 7 days later, ascites cells were sampled. The cells were washed once with a sterilized physiological sodium chloride solution and were used to prepare a cell suspension containing 5×10^7 cells per ml with a sterilized physiological sodium chloride solution. On each occasion, 0.1 ml of the cell suspension was subcutaneously implanted into the right axilla of a male mouse (ddY strain; body weight 20±2 g).
The anti-tumour activity was determined in the following manner. 7 days after the implantation, the major axis (a) and the minor axis (b) of the tumour were measured to calculate a value of "a×b^2 /2" which corresponds to the volume of the tumour. The anti-tumour activity was expressed by the ratio (T/C) of the volume (T) of the tumours of the group of animals administered with the test compound to the corresponding volume (C) of tumours of the untreated animals.
On graph paper, T/C was indicated by an arithmetic scale on the longitudinal axis and the administered amount of the test compound was indicated by a logarithmic scale on the lateral axis.

[2] = Acute toxicity; details: mouse, in vivo, ip; ddY mice, intraperitoneally once, 14 days observation
Procedure: Each animal of the test group consisting of 5 ddY mice was administered intraperitoneally once with a test compound. […] The LD50 was determined by Beherns Kaerber's method.

[3] = system: Klebsiella pneumoniae ATCC 10031; assay: Antibacterial activity (minimum growth inhibitory concentration), agar dilution method; type: cell-based; details: ATCC10031; Klebsiella pneumoniae ATCC 10031, pH 7.0, agar dilution method; read-out: minimum growth inhibitory concentration, KP
Procedure: (§1) Antibacterial activities of Compounds (I) against various bacteria are shown by the minimum growth inhibitory concentration (μg/ml) in Table 3. The minimum growth inhibitory concentration was measured at pH 7.0 according to the agar dilution method. In the table, bacteria are indicated by the following letters.
KP: Klebsiella pneumoniae ATCC 10031

[4] = system: Proteus vulgalis ATCC 6897; assay: as above; type: cell-based; details: pH 7, read-out: minimum growth inhibitory concentration, PV
Procedure: as §1
PV: Proteus vulgalis ATCC 6897

[5] = system: Bacillus subtilis 10707; assay: as above; type: cell-based; details: Bacillus subtilis 10707, pH 7.0, agar dilution method; read-out: minimum growth inhibitory concentration, BS
Procedure: as §1
BS: Bacillus subtilis 10707

[6] = system: Staphylococcus aureus ATCC 6538P; assay: as above; type: cell-based; details: ATCC6538P, pH 7.0, agar dilution method, read-out: minimum growth inhibitory concentration, SA
Procedure: as §1
SA: Staphylococcus aureus ATCC 6538P

[7] = system: Streptococcus faecalis ATCC 10541; assay: as above; type: cell-based; details: Enterococcus faecalis, ATCC10541; Streptococcus faecalis ATCC 10541, pH 7.0, agar dilution method; read-out: minimum growth inhibitory concentration, SF
Procedure: as §1
SF: Streptococcus faecalis ATCC 10541

[8] = system: peripheral leucocytes; assay: Effect on the peripheral leucocytes number; type: in vivo, mouse (ddY strain); details: minimum dose reducing peripheral leucocytes number to 4000/mm^3; tumour-carrying ddY mice, intraperitoneal, 4 days after administration
Procedure: WBC4000 : Minimum dose of a test compound which reduces the
peripheral leucocytes number to 4000/mm^3.
Sarcoma 180 solid tumour cells (5×10^6) were subcutaneously implanted into the right axilla of each mouse (body weight 20±2 g) of a group consisting of 5 male mice (ddY strain). 24 hours after implantation,a test compound was intraperitoneally administered to each animal. 4 days after the administration, blood (each 0.02 ml) was collected from the suborbital plexus vein of each tumour-carrying animal. The collected sample of blood was dispersed in 9.98 ml of Cell-Kit Seven solution. One drop of saponin solution was added to the sample to dissolve erythrocytes and then a microcell counter was used to count the number of leucocytes. […] The relationship between the number of peripheral leucocytes and the dose of the test compound was plotted and the dose (i.e., WBC4000) corresponding to 4000 peripheral leucocytes/mm^3 (about half the number of leucocytes of normal mice) was obtained.

Structure (SMILES)	CIc [1]	ED50 [1]	CI (LD50/ED50) [1]	LD50 at 336 h [2]	MIC [3]	MIC [4]	MIC [5]	MIC [6]	MIC [7]	WBC4000 [8]
CO[C@@]12[C@H](COC(N)=O)C3=C(C(=O)C(C)=C(NCCCCSC(C)=S)C3=O)N1C[C@@H]1N[C@@H]12 [Compound 30]	> 1.1	37.7 mg/kg	> 2.7	> 100 mg/kg	1.3 µg/mL (≈ 2.7 µM)	5 µg/mL (≈ 10.4 µM)	0.31 µg/mL (≈ 0.645 µM)	0.31 µg/mL (≈ 0.645 µM)	0.31 µg/mL (≈ 0.645 µM)	58.1 mg/kg
CO[C@@]12[C@H](COC(N)=O)C3=C(C(=O)C(C)=C(NCCSC(=O)c4ccccc4)C3=O)N1C[C@H]1[C@@H]2N1C (some centres unmarked) [Compound 16]	–	–	–	–	10 µg/mL (≈ 19.5 µM)	> 40 µg/mL	0.078 µg/mL (≈ 0.152 µM)	0.16 µg/mL (≈ 0.312 µM)	0.63 µg/mL (≈ 1.23 µM)	–
CC1=C(NCCSC(=O)c2ccc(Br)cc2)C(=O)C2=C(C1=O)N1C[C@H]3[C@H](N3C)[C@]1(O)[C@H]2COC(N)=O (some centres unmarked) [Compound 22]	–	–	–	–	> 100 µg/mL	–	< 0.049 µg/mL	0.39 µg/mL (≈ 0.675 µM)	25 µg/mL (≈ 43.3 µM)	–
CO[C@@]12[C@H](COC(N)=O)C3=C(C(=O)C(C)=C(NCCCCCCCCSC(=O)c4ccc(F)cc4)C3=O)N1C[C@@H]1N[C@@H]12 [Compound 20]	1.6	16.3 mg/kg	3.8	62.5 mg/kg	40 µg/mL (≈ 66.6 µM)	> 40 µg/mL	0.31 µg/mL (≈ 0.516 µM)	0.63 µg/mL (≈ 1.05 µM)	0.63 µg/mL (≈ 1.05 µM)	13.0 mg/kg
CC1=C(NCCSC(=O)c2ccc(F)cc2)C(=O)C2=C(C1=O)N1C[C@H]3[C@H](N3C)[C@]1(O)[C@H]2COC(N)=O (some centres unmarked) [Compound 19, 7-N-[2-(4-fluorobenzoylthio)ethyl]mitomycin D]	0.89	5.6 mg/kg	2.7	15 mg/kg	–	–	1.6 µg/mL (≈ 3.1 µM)	6.3 µg/mL (≈ 12.2 µM)	100 µg/mL (≈ 194 µM)	19.1 mg/kg
C=C1C2=C(C(=O)C(C)=C(NCCSC(C)=S)C2=O)N2C[C@H]3[C@H](N3C)[C@]12O (some centres unmarked) [Compound 29]	–	–	–	–	25 µg/mL (≈ 63.9 µM)	13 µg/mL (≈ 33.2 µM)	1.6 µg/mL (≈ 4.09 µM)	3.1 µg/mL (≈ 7.92 µM)	> 100 µg/mL	–
CO[C@@]12[C@H](COC(N)=O)C3=C(C(=O)C(C)=C(NCCCCCCSC(C)=S)C3=O)N1C[C@@H]1N[C@@H]12 [Compound 31]	> 1.5	28.1 mg/kg	> 3.6	> 100 mg/kg	2.5 µg/mL (≈ 4.91 µM)	10 µg/mL (≈ 19.7 µM)	2.5 µg/mL (≈ 4.91 µM)	1.3 µg/mL (≈ 2.56 µM)	2.5 µg/mL (≈ 4.91 µM)	27.5 mg/kg
CO[C@@]12[C@H](COC(N)=O)C3=C(C(=O)C(C)=C(NCCCCCCCCSC(C)=O)C3=O)N1C[C@@H]1N[C@@H]12 [Compound 12]	1.3	9.7 mg/kg	4.6	45 mg/kg	1.3 µg/mL (≈ 2.5 µM)	5 µg/mL (≈ 9.6 µM)	0.31 µg/mL (≈ 0.595 µM)	0.31 µg/mL (≈ 0.595 µM)	5 µg/mL (≈ 9.6 µM)	19.6 mg/kg
CC1=C(NCCSC(=O)c2ccccc2)C(=O)C2=C(C1=O)N1C[C@H]3[C@H](N3C)[C@]1(O)[C@H]2COC(N)=O (some centres unmarked) [Compound 14]	–	–	–	–	> 100 µg/mL	–	0.39 µg/mL (≈ 0.782 µM)	> 100 µg/mL	50 µg/mL (≈ 100 µM)	–
CCC(=O)SCCNC1=C(C)C(=O)C2=C(C1=O)[C@H](COC(N)=O)[C@@]1(O)[C@@H]3[C@H](CN21)N3C (some centres unmarked) [Compound 6]	–	–	–	–	25 µg/mL (≈ 55.5 µM)	100 µg/mL (≈ 222 µM)	0.78 µg/mL (≈ 1.73 µM)	13 µg/mL (≈ 28.9 µM)	13 µg/mL (≈ 28.9 µM)	–
CC1=C(NCCSC(=O)c2ccc([N+](=O)[O-])cc2)C(=O)C2=C(C1=O)N1C[C@H]3[C@H](N3C)[C@]1(O)[C@H]2COC(N)=O (some centres unmarked) [Compound 25]	1.6	6.9 mg/kg	4.9	33.8 mg/kg	13 µg/mL (≈ 23.9 µM)	> 100 µg/mL	0.39 µg/mL (≈ 0.717 µM)	3.1 µg/mL (≈ 5.7 µM)	13 µg/mL (≈ 23.9 µM)	15.9 mg/kg
COc1ccc(C(=O)SCCNC2=C(C)C(=O)C3=C(C2=O)[C@H](COC(N)=O)[C@@]2(O)[C@@H]4[C@H](CN32)N4C)cc1 (some centres unmarked) [Compound 24]	1.3	7.2 mg/kg	3.8	27.5 mg/kg	–	–	1.6 µg/mL (≈ 3.03 µM)	1.6 µg/mL (≈ 3.03 µM)	100 µg/mL (≈ 189 µM)	25.5 mg/kg
CO[C@@]12[C@H](COC(N)=O)C3=C(C(=O)C(C)=C(N)C3=O)N1C[C@@H]1N[C@@H]12 [MMC, mitomycin C, reference compound]	1	–	–	–	–	–	–	–	–	2.4 to 6.1 mg/kg
CC(=S)SCCNC1=C(C)C(=O)C2=C(C1=O)[C@H](COC(N)=O)[C@@]1(O)[C@@H]3[C@H](CN21)N3C (some centres unmarked) [Compound 27, 7-N-(2-dithioacetyloxyethyl)mitomycin D]	1.1	3.4 mg/kg	3.9	13.1 mg/kg	0.78 µg/mL (≈ 1.72 µM)	3.1 µg/mL (≈ 6.85 µM)	< 0.049 µg/mL	0.2 µg/mL (≈ 0.442 µM)	0.39 µg/mL (≈ 0.862 µM)	15.5 mg/kg
C=C1C2=C(C(=O)C(C)=C(NCCSC(=O)c3ccccc3)C2=O)N2C[C@H]3[C@H](N3C)[C@]12O (some centres unmarked) [Compound 15]	≥ 0.74	27.5 mg/kg	≥ 1.8	≥ 50 mg/kg	50 µg/mL (≈ 114 µM)	25 µg/mL (≈ 57.1 µM)	1.6 µg/mL (≈ 3.66 µM)	25 µg/mL (≈ 57.1 µM)	> 100 µg/mL	27.5 mg/kg
CO[C@@]12[C@H](COC(N)=O)C3=C(C(=O)C(C)=C(NCCCCCCSC(=O)c4ccccc4)C3=O)N1C[C@@H]1N[C@@H]12 [Compound 17]	> 1.7	9.5 mg/kg	> 5.3	> 50 mg/kg	10 µg/mL (≈ 18 µM)	> 40 µg/mL	0.16 µg/mL (≈ 0.288 µM)	0.63 µg/mL (≈ 1.14 µM)	2.5 µg/mL (≈ 4.51 µM)	32.2 mg/kg
COc1ccc(C(=O)SCCNC2=C(C)C(=O)C3=C(C2=O)[C@@H](COC(N)=O)[C@@]2(OC)[C@H]4N[C@H]4CN32)cc1 [Compound 23]	0.81	2.5 mg/kg	2.5	6.3 mg/kg	5 µg/mL (≈ 9.46 µM)	10 µg/mL (≈ 18.9 µM)	< 0.02 µg/mL	< 0.02 µg/mL	0.16 µg/mL (≈ 0.303 µM)	5 mg/kg
CO[C@@]12[C@H](COC(N)=O)C3=C(C(=O)C(C)=C(NCCSC(=O)c4ccc(F)cc4)C3=O)N1C[C@@H]1N[C@@H]12 [Compound 18]	1.2	1.6 mg/kg	3.8	6 mg/kg	5 µg/mL (≈ 9.68 µM)	10 µg/mL (≈ 19.4 µM)	< 0.02 µg/mL	< 0.02 µg/mL	0.16 µg/mL (≈ 0.31 µM)	5 mg/kg
CO[C@@]12[C@H](COC(N)=O)C3=C(C(=O)C(C)=C(NCCSC(C)=S)C3=O)N1C[C@H]1[C@@H]2N1C (some centres unmarked) [Compound 28]	1.1	3.3 mg/kg	4.0	13.1 mg/kg	1.3 µg/mL (≈ 2.79 µM)	2.5 µg/mL (≈ 5.36 µM)	< 0.02 µg/mL	< 0.02 µg/mL	0.039 µg/mL (≈ 0.0836 µM)	10.4 mg/kg
CCC(=O)SCCNC1=C(C)C(=O)C2=C(C1=O)[C@@H](COC(N)=O)[C@@]1(OC)[C@H]3N[C@H]3CN21 [Compound 5]	0.59	5 mg/kg	0.94	4.7 mg/kg	0.31 µg/mL (≈ 0.688 µM)	1.3 µg/mL (≈ 2.89 µM)	< 0.02 µg/mL	< 0.02 µg/mL	< 0.02 µg/mL	> 5 mg/kg
